Structures are written as SMILES. pIC50: −log10 of the molar value.

The target in assay [1] is PI3K delta (Homo sapiens (Human), UniProt O00329). Description: Enzymatic PI3K delta isoform inhibition (lipid kinase, Kinase-Glo luminescence). In kind it is biochemical. Particulars: enzymatic assay. For orientation: Kinase-Glo reads ATP consumption through a luciferase reaction.
The target in assay [2] is PI3K alpha (Homo sapiens (Human), UniProt P42336). The assay can be described thus: Enzymatic PI3K alpha isoform inhibition (lipid kinase, Kinase-Glo luminescence). Type of assay: biochemical. The conditions noted are these: enzymatic assay.
PI3K alpha, sequence (P42336 other isoform, or with tags, fused parts or gaps): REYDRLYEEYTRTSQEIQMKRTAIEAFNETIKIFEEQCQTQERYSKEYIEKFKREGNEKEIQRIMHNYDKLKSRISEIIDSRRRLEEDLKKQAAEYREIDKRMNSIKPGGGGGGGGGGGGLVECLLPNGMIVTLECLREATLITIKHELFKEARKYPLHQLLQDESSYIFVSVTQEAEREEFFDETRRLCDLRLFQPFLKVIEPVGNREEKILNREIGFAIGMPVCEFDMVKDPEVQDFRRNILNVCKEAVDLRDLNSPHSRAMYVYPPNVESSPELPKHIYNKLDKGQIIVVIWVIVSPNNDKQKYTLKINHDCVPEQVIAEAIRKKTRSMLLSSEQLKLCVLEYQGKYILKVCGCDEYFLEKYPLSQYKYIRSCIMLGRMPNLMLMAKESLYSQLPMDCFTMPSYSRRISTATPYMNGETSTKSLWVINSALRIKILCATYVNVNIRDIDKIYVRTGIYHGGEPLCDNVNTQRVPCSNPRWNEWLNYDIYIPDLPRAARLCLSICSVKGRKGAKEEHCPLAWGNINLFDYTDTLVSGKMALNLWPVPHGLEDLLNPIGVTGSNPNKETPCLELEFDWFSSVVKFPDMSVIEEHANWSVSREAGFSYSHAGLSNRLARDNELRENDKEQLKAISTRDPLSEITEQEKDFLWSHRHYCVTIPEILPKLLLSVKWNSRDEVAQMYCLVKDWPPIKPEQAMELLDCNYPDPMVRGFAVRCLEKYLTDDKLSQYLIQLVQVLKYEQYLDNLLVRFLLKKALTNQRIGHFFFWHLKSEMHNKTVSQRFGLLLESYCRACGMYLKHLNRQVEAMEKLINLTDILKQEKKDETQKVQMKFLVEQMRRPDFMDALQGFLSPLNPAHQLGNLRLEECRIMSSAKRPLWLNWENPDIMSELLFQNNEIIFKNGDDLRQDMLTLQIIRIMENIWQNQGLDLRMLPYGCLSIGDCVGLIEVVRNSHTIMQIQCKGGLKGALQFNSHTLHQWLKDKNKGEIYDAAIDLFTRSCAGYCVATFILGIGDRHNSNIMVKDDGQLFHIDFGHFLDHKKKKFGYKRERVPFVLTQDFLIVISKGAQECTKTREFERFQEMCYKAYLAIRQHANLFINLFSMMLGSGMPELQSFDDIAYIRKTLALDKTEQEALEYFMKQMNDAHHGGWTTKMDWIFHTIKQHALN

PI3K delta, sequence (O00329 other isoform, or with tags, fused parts or gaps linker GGGGGG): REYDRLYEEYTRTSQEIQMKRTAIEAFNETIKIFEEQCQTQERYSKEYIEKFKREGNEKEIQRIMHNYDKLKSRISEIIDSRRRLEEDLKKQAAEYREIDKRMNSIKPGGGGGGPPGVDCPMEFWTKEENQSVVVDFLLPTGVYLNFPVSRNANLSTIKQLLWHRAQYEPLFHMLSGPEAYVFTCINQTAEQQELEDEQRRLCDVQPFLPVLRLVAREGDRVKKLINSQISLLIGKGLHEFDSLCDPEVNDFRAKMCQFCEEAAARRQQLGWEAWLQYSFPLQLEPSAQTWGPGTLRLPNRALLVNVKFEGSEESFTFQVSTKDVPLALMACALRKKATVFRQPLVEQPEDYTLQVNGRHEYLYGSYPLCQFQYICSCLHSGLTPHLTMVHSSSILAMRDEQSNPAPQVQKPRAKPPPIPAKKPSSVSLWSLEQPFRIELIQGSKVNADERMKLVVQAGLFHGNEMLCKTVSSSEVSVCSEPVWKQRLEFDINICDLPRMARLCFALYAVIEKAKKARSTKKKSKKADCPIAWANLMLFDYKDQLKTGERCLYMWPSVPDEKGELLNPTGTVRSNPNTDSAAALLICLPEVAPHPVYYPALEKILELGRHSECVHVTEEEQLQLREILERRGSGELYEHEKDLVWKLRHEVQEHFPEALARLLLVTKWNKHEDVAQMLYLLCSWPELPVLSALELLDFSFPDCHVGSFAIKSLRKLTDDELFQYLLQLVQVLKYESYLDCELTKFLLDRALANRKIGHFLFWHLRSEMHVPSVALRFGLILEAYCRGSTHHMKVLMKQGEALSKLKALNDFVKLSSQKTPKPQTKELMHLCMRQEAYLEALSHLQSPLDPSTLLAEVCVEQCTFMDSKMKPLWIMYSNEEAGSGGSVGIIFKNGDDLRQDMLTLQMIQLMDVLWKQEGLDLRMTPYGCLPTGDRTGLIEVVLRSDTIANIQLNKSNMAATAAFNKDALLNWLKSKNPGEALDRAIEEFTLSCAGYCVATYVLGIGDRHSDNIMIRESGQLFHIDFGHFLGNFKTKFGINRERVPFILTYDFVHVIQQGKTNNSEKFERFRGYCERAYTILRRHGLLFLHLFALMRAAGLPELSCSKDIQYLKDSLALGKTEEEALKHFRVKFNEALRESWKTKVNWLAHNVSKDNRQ

As to `COc1ncc(N2CCc3ncnc(N[C@H]4CCN(C(=O)[C@H]5CC[C@@H](OC)CC5)C4)c3C2)cc1C(F)(F)F` (single isomer, unassigned) [Example 73], the pIC50 (as a rule, −log10 of the IC50, conventionally taken in molar units) in assay [1] is 8.40.

Take `COc1ncc(N2CCc3ncnc(N[C@H]4CCN(C(=O)[C@H]5CC[C@H](OC)CC5)C4)c3C2)cc1C(F)(F)F` (single isomer, unassigned) [Example 74]: the pIC50 in assay [1] was 8.40.

Turning to `COc1ncc(N2CCc3ncnc(N[C@H]4CCN(C(=O)[C@H]5CC[C@@H](O)CC5)C4)c3C2)cc1C(F)(F)F` (single isomer, unassigned) [Example 75], the pIC50 in assay [1] is 8.40; in assay [2] it was 6.93.

Regarding `COc1ncc(N2CCc3ncnc(N[C@H]4CCN(C(=O)[C@H]5CC[C@H](O)CC5)C4)c3C2)cc1C(F)(F)F` (single isomer, unassigned) [Example 76], the pIC50 in assay [1] was 8.15; in assay [2] it was 6.97.

In the case of `COc1ncc(N2CCc3ncnc(O[C@H]4CCN(C(=O)C5CCOCC5)C4)c3C2)c(OC)n1` [Example 2, {(S)-3-[6-(2,4-Dimethoxy-pyrimidin-5-yl)-5,6,7,8-tetrahydro-pyrido[4,3-d]pyrimidin-4-yloxy]-pyrrolidin-1-yl}-(tetrahydro-pyran-4-yl)-methanone], the pIC50 in assay [1] is 8.05; in assay [2], 5.47.

As to `COc1ncc(N2CCc3ncnc(O[C@H]4CCN(C(=O)C5CCOCC5)C4)c3C2)cc1C#N` [Example 3, 2-Methoxy-5-{4-[(S)-1-(tetrahydro-pyran-4-carbonyl)-pyrrolidin-3-yloxy]-7,8-dihydro-5H-pyrido[4,3-d]pyrimidin-6-yl}-nicotinonitrile], the negative-log IC50 (pIC50) in assay [1] was 7.82; in assay [2] it was 5.62.

With `CCC(=O)N1CC[C@H](Oc2ncnc3c2CN(c2cnc(OC)c(OC)c2)CC3)C1` [Example 4, 1-{(S)-3-[6-(5,6-Dimethoxy-pyridin-3-yl)-5,6,7,8-tetrahydro-pyrido[4,3-d]pyrimidin-4-yloxy]-pyrrolidin-1-yl}-propan-1-one], the results for the negative-log IC50 (pIC50) in assay [1] and in assay [2] were 7.48 and 5.75, respectively.

For `N#Cc1cc(N2CCc3ncnc(O[C@H]4CCN(C(=O)C5CCOCC5)C4)c3C2)cnc1N` [Example 6, 2-Amino-5-{4-[(S)-1-(tetrahydro-pyran-4-carbonyl)-pyrrolidin-3-yloxy]-7,8-dihydro-5H-pyrido[4,3-d]pyrimidin-6-yl}-nicotinonitrile], the pIC50 in assay [1] is 7.36; in assay [2], 6.01.

`COc1ncc(N2CCc3ncnc(O[C@H]4CCN(C(=O)C5CCOCC5)C4)c3C2)cc1F` [Example 7]: the pIC50 in assay [1] was 7.89; in assay [2] it was 5.70.

With `COCC(=O)N1CC[C@H](Oc2ncnc3c2CN(c2cnc(OC)c(C#N)c2)CC3)C1` [Example 8, 2-Methoxy-5-{4-[(S)-1-(2-methoxy-acetyl)-pyrrolidin-3-yloxy]-7,8-dihydro-5H-pyrido[4,3-d]pyrimidin-6-yl}-nicotinonitrile], the pIC50 was 7.57 in assay [1] and 5.60 in assay [2].

On to `COc1ncc(N2CCc3ncnc(O[C@H]4CCN(C(=O)C5CCCC5)C4)c3C2)cc1C#N` [Example 9, 5-[4-((S)-1-Cyclopentanecarbonyl-pyrrolidin-3-yloxy)-7,8-dihydro-5H-pyrido[4,3-d]pyrimidin-6-yl]-2-methoxy-nicotinonitrile], for which the pIC50 in assay [1] was 8.05; in assay [2], 5.54.

As to `COc1ncc(N2CCc3ncnc(O[C@H]4CCN(C(=O)c5oc(C)nc5C)C4)c3C2)cc1C` [Example 10, (2,4-Dimethyl-oxazol-5-yl)-{(S)-3-[6-(6-methoxy-5-methyl-pyridin-3-yl)-5,6,7,8-tetrahydro-pyrido[4,3-d]pyrimidin-4-yloxy]-pyrrolidin-1-yl}-methanone], the pIC50 in assay [1] is 8.05; in assay [2], 6.18.

For `COc1ncc(N2CCc3ncnc(O[C@H]4CCN(C(=O)c5ccoc5)C4)c3C2)cc1C` [Example 11, Furan-3-yl-{(S)-3-[6-(6-methoxy-5-methyl-pyridin-3-yl)-5,6,7,8-tetrahydro-pyrido[4,3-d]pyrimidin-4-yloxy]-pyrrolidin-1-yl}-methanone], the negative logarithm of the IC50 (pIC50) in assay [1] is 7.96; in assay [2] it was 5.92.

As to `COc1ncc(N2CCc3ncnc(O[C@H]4CCN(C(=O)c5cnco5)C4)c3C2)cc1C` [Example 12, {(S)-3-[6-(6-Methoxy-5-methyl-pyridin-3-yl)-5,6,7,8-tetrahydro-pyrido[4,3-d]pyrimidin-4-yloxy]-pyrrolidin-1-yl}-oxazol-5-yl-methanone], the figures for the pIC50 in assay [1] and in assay [2] were 7.92 and 6.02, respectively.

As to `COc1ncc(N2CCc3ncnc(O[C@H]4CCN(C(=O)c5cncn5C)C4)c3C2)cc1C` [Example 13, {(S)-3-[6-(6-Methoxy-5-methyl-pyridin-3-yl)-5,6,7,8-tetrahydro-pyrido[4,3-d]pyrimidin-4-yloxy]-pyrrolidin-1-yl}-(3-methyl-3H-imidazol-4-yl)-methanone], the pIC50 in assay [1] was 7.89; in assay [2] it was 5.74.

Regarding `COc1ncc(N2CCc3ncnc(O[C@H]4CCN(C(=O)c5coc(C)n5)C4)c3C2)cc1C` [Example 14, {(S)-3-[6-(6-Methoxy-5-methyl-pyridin-3-yl)-5,6,7,8-tetrahydro-pyrido[4,3-d]pyrimidin-4-yloxy]-pyrrolidin-1-yl}-(2-methyl-oxazol-4-yl)-methanone], the figures for the pIC50 in assay [1] and in assay [2] were 7.89 and 5.74, respectively.

For the compound `COc1ncc(N2CCc3ncnc(O[C@H]4CCN(C(=O)C5CC(OC)C5)C4)c3C2)cc1C` (stereo partly drawn) [Example 15, (3-Methoxy-cyclobutyl)-{(S)-3-[6-(6-methoxy-5-methyl-pyridin-3-yl)-5,6,7,8-tetrahydro-pyrido[4,3-d]pyrimidin-4-yloxy]-pyrrolidin-1-yl}-methanone], the negative-log IC50 (pIC50) was 7.85 in assay [1] and 5.79 in assay [2].

With `COc1ncc(N2CCc3ncnc(O[C@H]4CCN(C(=O)c5cocn5)C4)c3C2)cc1C` [Example 16], the pIC50 is 7.80 in assay [1] and 5.77 in assay [2].

`COc1ncc(N2CCc3ncnc(O[C@H]4CCN(C(=O)C5CCN(C(C)=O)CC5)C4)c3C2)cc1C` [Example 17, 1-(4-{(S)-3-[6-(6-Methoxy-5-methyl-pyridin-3-yl)-5,6,7,8-tetrahydro-pyrido[4,3-d]pyrimidin-4-yloxy]-pyrrolidine-1-carbonyl}-piperidin-1-yl)-ethanone]: the pIC50 in assay [1] is 7.77; in assay [2], 5.11.

Regarding `COc1ncc(N2CCc3ncnc(O[C@H]4CCN(C(=O)c5ocnc5C)C4)c3C2)cc1C` [Example 18, {(S)-3-[6-(6-Methoxy-5-methyl-pyridin-3-yl)-5,6,7,8-tetrahydro-pyrido[4,3-d]pyrimidin-4-yloxy]-pyrrolidin-1-yl}-(4-methyl-oxazol-5-yl)-methanone], the pIC50 in assay [1] was 7.48; in assay [2] it was 6.06.

In the case of `COc1ncc(N2CCc3ncnc(O[C@H]4CCN(C(=O)c5ccc(=O)[nH]c5)C4)c3C2)cc1C` [Example 19, 5-{(S)-3-[6-(6-Methoxy-5-methyl-pyridin-3-yl)-5,6,7,8-tetrahydro-pyrido[4,3-d]pyrimidin-4-yloxy]-pyrrolidine-1-carbonyl}-1H-pyridin-2-one], the pIC50 was 7.48 in assay [1] and 5.51 in assay [2].

Regarding `COc1cc(N2CCc3ncnc(O[C@H]4CCN(C(=O)c5cocn5)C4)c3C2)cnc1OC` [Example 21, {(S)-3-[6-(5,6-Dimethoxy-pyridin-3-yl)-5,6,7,8-tetrahydro-pyrido[4,3-d]pyrimidin-4-yloxy]-pyrrolidin-1-yl}-oxazol-4-yl-methanone], the pIC50 is 8.10 in assay [1] and 6.49 in assay [2].

On to `COc1cc(N2CCc3ncnc(O[C@H]4CCN(C(=O)c5cnco5)C4)c3C2)cnc1OC` [Example 22, {(S)-3-[6-(5,6-Dimethoxy-pyridin-3-yl)-5,6,7,8-tetrahydro-pyrido[4,3-d]pyrimidin-4-yloxy]-pyrrolidin-1-yl}-oxazol-5-yl-methanone], for which the pIC50 in assay [1] is 8.10; in assay [2], 6.24.

Consider `COc1cc(N2CCc3ncnc(O[C@H]4CCN(C(=O)c5coc(C)n5)C4)c3C2)cnc1OC` [Example 23, {(S)-3-[6-(5,6-Dimethoxy-pyridin-3-yl)-5,6,7,8-tetrahydro-pyrido[4,3-d]pyrimidin-4-yloxy]-pyrrolidin-1-yl}-(2-methyl-oxazol-4-yl)-methanone], for which the pIC50 in assay [1] is 8.00; in assay [2] it was 6.89.

In the case of `COc1cc(N2CCc3ncnc(O[C@H]4CCN(C(=O)C5CCOC(C)(C)C5)C4)c3C2)cnc1OC` (stereo partly drawn) [Example 24, {(S)-3-[6-(5,6-Dimethoxy-pyridin-3-yl)-5,6,7,8-tetrahydro-pyrido[4,3-d]pyrimidin-4-yloxy]-pyrrolidin-1-yl}-(2,2-dimethyl-tetrahydro-pyran-4-yl)-methanone], the pIC50 is 8.05 in assay [1] and 6.43 in assay [2].

`COc1cc(N2CCc3ncnc(O[C@H]4CCN(C(=O)c5oc(C)nc5C)C4)c3C2)cnc1OC` [Example 25, {(S)-3-[6-(5,6-Dimethoxy-pyridin-3-yl)-5,6,7,8-tetrahydro-pyrido[4,3-d]pyrimidin-4-yloxy]-pyrrolidin-1-yl}-(2,4-dimethyl-oxazol-5-yl)-methanone]: the values for the pIC50 in assay [1] and in assay [2] were 7.59 and 6.09, respectively.

On to `COc1ncc(N2CCc3ncnc(O[C@H]4CCN(C(=O)N5CCN(C)CC5)C4)c3C2)cc1C(F)(F)F` [Example 85, {(S)-3-[6-(6-methoxy-5-trifluoromethyl-pyridin-3-yl)-5,6,7,8-tetrahydro-pyrido[4,3-d]pyrimidin-4-yloxy]-pyrrolidin-1-yl}-(4-methyl-piperazin-1-yl)-methanone], for which the pIC50 in assay [1] is 7.68.

`COC(=O)N1CC[C@H](Oc2ncnc3c2CN(c2cnc(OC)c(C#N)c2)CC3)C1` [Example 90, (S)-3-[6-(5-cyano-6-methoxy-pyridin-3-yl)-5,6,7,8-tetrahydro-pyrido[4,3-d]pyrimidin-4-yloxy]-pyrrolidine-1-carboxylic acid methyl ester]: the negative logarithm of the IC50 (pIC50) in assay [1] was 7.42. This pIC50 is 0.26 log units lower than that of the compound before.

Take `COc1ncc(N2CCc3ncnc(O[C@H]4CCN(C(=O)c5cnco5)C4)c3C2)cc1C(F)(F)F` [Example 94, {(S)-3-[6-(6-Methoxy-5-trifluoromethyl-pyridin-3-yl)-5,6,7,8-tetrahydro-pyrido[4,3-d]pyrimidin-4-yloxy]-pyrrolidin-1-yl}-oxazol-5-yl-methanone]: in assay [2], the pIC50 was 5.77.

Values taken from patent publication US8653092B2, “Tetrahydro-pyrido-pyrimidine derivatives” (Novartis AG, priority 2010, dated 2014).
